Measurements as given in US8404930B2, “Methods for improving monocot transformation” (Pioneer Hi-Bred International, Inc., priority 2009, dated 2013).
Values joined by “and” are separate entries in the source; they are usually repeats but may differ in a detail not shown here. Equal entries are not always repeated. Where two headings read alike, the source gives them in different places.

How the values were obtained:
[1] = test system: Maize inbred PHR03 immature embryos; settings: for Transformation frequency (%): dark
Experimental: (§1) Maize inbred PHR03 immature embryos (9-13 DAP when embryo size around 0.8-2.5 mm) were infected with 5×10^8 cfu/mL Agrobacterium LBA4404 containing superbinary vector PHPMRFP in PHI-I liquid medium. The embryos were then co-cultivated on PHI-T co-cultivation media plates at 21° C. in dark conditions for 3 days. This may range from 1-7 days.
(§2) The embryos were subcultured every 2-3 weeks.
(§3) A regeneration step is followed by culturing the putative transgenic callus on PHI-RF medium plates for producing shoots and a rooting step on medium plates PHI-RR.
Transformation frequency was calculated by the number of embryos producing transgenic callus capable of regenerating plants divided by the number of embryos infected by Agrobacterium.

[2] = test system: Maize inbred PHR03 immature embryos; assay: Transformation frequency of maize using various light intensities (Example 18); format: cell-based; settings: 4 μM copper in DBC3 resting and selection media
Experimental: as §1, §2
A regeneration step was followed by culturing the putative transgenic callus on PHI-RF medium plates for producing shoots and a rooting step on medium plates PHI-RR.
(§4) Transformation frequency was calculated by the number of embryos producing transgenic plants divided by the number of embryos infected by Agrobacterium.

[3] = test system: Sorghum line TX430 immature embryos; settings: for Transformation frequency (%): dark
Experimental: (§5) Sorghum line TX430 immature embryos (9-15 DAP when embryo size around 0.8-2.5 mm) were infected with 1×10^9cfu/mL Agrobacterium LBA4404 containing superbinary vector PHPMYFP in PHI-I liquid medium. The embryos were co-cultivated on PHI-T medium plates at 25° C. (ranged 21-25° C.) in dark for 3 days (ranged 1-7 days).
(§6) The whole selection step was in dark at 28° C. After two to three months from the initiation of the experiment, transgenic callus events were cultured for plant regeneration on the same regeneration medium (PHI-RF and PHI-Z) at the regular regeneration conditions.
Transformation frequency was calculated by the number of embryos producing transgenic plants divided by the number of embryos infected by Agrobacterium

[4] = test system: Sorghum line TX430 immature embryos; settings: for Transformation frequency (%): dark; remark: listed apart in the source
Experimental: as §5, §6
Transformation frequency was calculated by the number of embryos producing transgenic callus capable of regeneration divided by the number of embryos infected by Agrobacterium

[5] = test system: Maize inbred PHR03 immature embryos; settings: for Transformation frequency (%): dark; remark: listed apart in the source
Experimental: as §1, §2, §3, §4

[6] = test system: Sorghum line TX430 immature embryos
Experimental: as §5
The whole selection step was in dark or dim light at 28° C. After two to three months from the initiation of the experiment, transgenic callus events were cultured for plant regeneration on the same regeneration medium (PHI-RF and PHI-Z) at the regular regeneration conditions.
as §4

[7] = 0.1 μM copper (negative control) in DBC3 resting and selection media, Average of exp 1-4
[8] = 0.1 μM copper (negative control) in DBC3 resting and selection media, single experiments exp 1-4
[9] = 5 μM copper in DBC3 resting and selection media, Average of exp 1-4

## O=S(=O)([O-])[O-].[Cu+2] [copper, cupric sulfate]
[1]; [7]
  Transformation frequency (%): 4.4%
[1]; [8]
  Transformation frequency (%): 2.5% and 5.0% and 7.5%
[1]; 1 μM copper and above, maize
  increase of transformation frequency over 0.1 μM copper: 3-5 times
[1]; 1 μM copper in DBC3 resting and selection media, Average of exp 1-4
  Transformation frequency (%): 16.9%
[1]; 1 μM copper in DBC3 resting and selection media, single experiments exp 1-4
  Transformation frequency (%): 15% and 17.5% and 20%
[1]; 4 μM copper in DBC3 resting and selection media, Average of exp 1-4
  Transformation frequency (%): 11.9%
[1]; [9]
  Transformation frequency (%): 23.1%
[2]; Dark, single experiments exp 1-4
  Transformation frequency (%): 10% and 17.5% and 12.5% and 7.5%
[2]; Dim light, Average of exp 1-4
  Transformation frequency (%): 17.5%
[2]; dark, Average of exp 1-4
  Transformation frequency (%): 11.9%
[3]; [7]
  Transformation frequency (%): 2.0%
[3]; [8]
  Transformation frequency (%): 3.33% and 2.50% and 0.00%
[3]; 5 μM copper and above, sorghum
  increase of transformation frequency over 0.1 μM copper: 4-6 times
[3]; [9]
  Transformation frequency (%): 13.8%
[3]; 5 μM copper in DBC3 resting and selection media, single experiments exp 1-4
  Transformation frequency (%): 16.67% and 15.00% and 8.33%
[3]; 10 μM copper in DBC3 resting and selection media, Average
  Transformation frequency (%): 13.0%
[3]; 10 μM copper in DBC3 resting and selection media, single experiments exp 1-4
  Transformation frequency (%): 20.00% and 10.00% and 12.50%
[3]; 30 μM copper in DBC3 resting and selection media, Average of exp 1-4
  Transformation frequency (%): 8.2%
[3]; 50 μM copper in DBC3 resting and selection media, Average of exp 1-4
  Transformation frequency (%): 9.6%
[3]; 50 μM copper in DBC3 resting and selection media, single experiments exp 1-4
  Transformation frequency (%): 5.00% and 10.00% and 11.11%
[4]; 0.1 μM copper in DBC3 resting and selection media, Average of exp 1-2
  Transformation frequency (%): 10.0%
[4]; 0.1 μM copper in DBC3 resting and selection media, single experiments exp 1-2
  Transformation frequency (%): 15.0% and 5.0%
[4]; 1 μM copper and above, sorghum
  increase of transformation frequency over 0.1 μM copper: two times
[4]; 1 μM copper in DBC3 resting and selection media, Average of exp 1-2
  Transformation frequency (%): 23.8%
[4]; 1 μM copper in DBC3 resting and selection media, single experiments exp 1-2
  Transformation frequency (%): 30.0% and 17.5%
[4]; 4 μM copper in DBC3 resting and selection media, Average of exp 1-2
  Transformation frequency (%): 17.1%
[4]; 5 μM copper in DBC3 resting and selection media, Average of exp 1-2
  Transformation frequency (%): 26.3%
[4]; 5 μM copper in DBC3 resting and selection media, single experiments exp 1-2
  Transformation frequency (%): 27.5% and 25.0%
[5]; 0.1 μM copper (negative control) in DBC3 resting and selection media, Average of exp 1-5
  Transformation frequency (%): 2.9%
[5]; 0.1 μM copper (negative control) in DBC3 resting and selection media, single experiments exp 1-5
  Transformation frequency (%): 5.0% and 0.0% and 10.0%
[5]; 5 μM copper and above, maize
  increase of transformation frequency over 0.1 μM copper: 4-7 times
[5]; 5 μM copper in DBC3 resting and selection media, Average of exp 1-5
  Transformation frequency (%): 23.5%
[5]; 10 μM copper in DBC3 resting and selection media, Average of exp 1-5
  Transformation frequency (%): 19.0%
[5]; 30 μM copper in DBC3 resting and selection media, Average of exp 1-5
  Transformation frequency (%): 14.0%
[5]; 50 μM copper in DBC3 resting and selection media, Average of exp 1-5
  Transformation frequency (%): 21.0%
[6]; 4 μM copper in DBC3 resting and selection media, Dim light, Average of exp 1-2
  Transformation frequency (%): 31.3%
[6]; 4 μM copper in DBC3 resting and selection media, dark, Average of exp 1-2
  Transformation frequency (%): 17.1%
[6]; 5 μM copper in DBC3 resting and selection media, Dim light, Average of exp 1-2
  Transformation frequency (%): 20.0%
[6]; 5 μM copper in DBC3 resting and selection media, dark, Average of exp 1-2
  Transformation frequency (%): 26.3%
[6]; 5 μM copper in DBC3 resting and selection media, dark, single experiments exp 1-2
  Transformation frequency (%): 27.5% and 25.0%
